Laboratory results taken from BindingDB's records for doi:10.1016/s0960-894x(02)00934-4 (Southern Research Institute, 2003).

Assay: Antagonist activity on agonist stimulated [35S]GTP-gamma-S, binding in guinea pig caudate membranes (10 uM SNC-80 as the agonist ligand for delta-receptor)

Which Ki does the source give for `Oc1ccc2c3c1O[C@H]1c4ncc(-n5cccc5)cc4C[C@@]4(O)[C@@H](C2)N(CC2CC2)CC[C@]314` [19-cyclopropylmethyl-6-(1H-1-pyrrolyl)-11-oxa-8,19-diazahexacyclo[10.9.1.01,10.02,18.04,9.016,22]docosa-4(9),5,7,12,14,16(22)-hexaene-2,13-diol] here?
Its Ki is 0.4 nM.

With `NC(N)=Nc1cnc2c(c1)C[C@@]1(O)[C@H]3Cc4ccc(O)c5c4[C@@]1(CCN3CC1CC1)[C@H]2O5` [6-amino(imino)methylamino-19-cyclopropylmethyl-11-oxa-8,19-diazahexacyclo[10.9.1.01,10.02,18.04,9.016,22]docosa-4(9),5,7,12,14,16(22)-hexaene-2,13-diol; ditrifluoracetic acid] as the compound, how does the Ki read?
Its Ki is 6.5 nM.
